Experimental data taken from patent publication US20240383924A1, “BENZOPYRIMIDINE COMPOUNDS AND USE THEREOF” (priority 2022, published 2024).
Where a name gives a salt, the structure may show the parent alone. Read-outs that look alike come from different tables or passages of the source.

Key:
[1] = target: T1, KRAS^G12D (Homo sapiens (Human), UniProt P01116, G12D); test: SOS1-mediated binding of KRAS^G12D to effector protein c-Raf (TR-FRET); type: biochemical; details: KRAS G12D/c-Raf/SOS1/GTP, read-out: IC50 Values of Compounds for KRAS^G12D Activity
Experimental: Assay example 1: Assay of SOS1-mediated binding ability of KRAS^G12D to effector protein c-Raf
2. Assay steps 2.1 Preparation of 1×enzymatic reaction buffer:
2.2 Preparation of KRAS G12D enzyme (2×):
2.3 Preparation of substrate and antibody mixture (2×):
1) The compounds were serially diluted 5-fold with DMSO in a dilution plate to a final starting concentration of 10 μM.
2) The compounds were transferred with Echo to a 384 reaction plate with […] per well.
3) 5 μL of KRAS G12D enzyme was added to each well of the reaction plate.
4) The plates were sealed with a sealing film and centrifuged at 1000 g for 30 seconds, and then incubated at room temperature for 15 minutes.
5) 2× cRaf/SOS1/GTP/MAb Anti 6HIS-d2/MAb Anti GST-Eu mixture was prepared with 1× enzyme reaction buffer, and 5 μL of the mixture was added to the reaction plate.
6) The mixture was centrifuged at 1000g for 30 seconds and reacted at room temperature for 2 hours.
7) The fluorescence signals at 615 nm (Cryptate) and 665 nm (XL665) were read with a BMG microplate reader.
8) Data analysis was performed using Graphpad 7.0 software to give IC50.

[2] = test system: phospho-ERK in GP2D cells; test: Inhibition of phospho-ERK in GP2D cells (Odyssey in-cell imaging); type: cell-based; details: Homo sapiens, 1 hour compound, EGF stimulation, read-out: Inhibitory effects on intracellular phospho-ERK IC50
Experimental: Assay example 3. Inhibitory effect of compounds on phospho-ERK in GP2D cells
In this assay, the inhibitory effect of the assayed compounds on the phosphorylation of ERK protein downstream of the KRAS […] signaling pathway in human colon cancer GP2D cells was analyzed.
2. Reagents, consumables and instruments
3.Assay process 1. Cell culture
1) GP2D cells were cultured in a cell culture 75 flask at 37° C., 5% CO2, and the medium was DMEM medium (added with 10% FBS and 1% P/S).
2) After cultivation for 2 days, the medium was removed and the sterile PBS buffer was used to wash once.
3) 3 mL of trypsin was added and the cells were digested in a 37° C. incubator for 2 to 3 minutes until cells fell off.
4) 9 mL of fresh culture medium was added to neutralize the digestion; the cells were aspirated into a centrifuge tube and centrifuged at 1000 rpm at room temperature for 5 minutes.
5) The supernatant was removed, and 3 mL of fresh culture medium was added to resuspend the cells; the cells were counted by a cell counter.
1) 7000 cells per well were plated in a 384-cell culture plate with 40 μL of culture medium, and cultured overnight in a 37° C. and 5% CO2 incubator.
2) The Echo655 instrument was used to add 40 nL of serially diluted compounds (the initial concentration of the compound was 1000 nM, and the compound was serially diluted 3-fold. […]

[3] = test system: KRAS^G12D mutated AsPC-1 cells; test: Anti-cell proliferation in tumor cell line AsPC-1 (CellTiter-Glo 3D); type: cell-based; details: Homo sapiens, ASPC1; AsPC-1, 120 hours, 3D culture; read-out: Anti-proliferation Activity against KRAS^G12D Mutated AsPC-1 Cells IC50
Source text: Assay example 2. Anti-cell proliferation effects of compounds in tumor cell line AsPC-1 1. Research purpose
In this assay, the inhibitory effects of compounds on cell proliferation were studied by detecting the effects of compounds on the in vitro cell activity in the tumor cell line AsPC-1.
Ultra Low Cluster-96 well plate (Corning-7007)
Greiner CELLSTAR 96-well plate (#655090)
Promega CellTiter-Glo 3D Luminescence Cell Viability Detection Kit (Promega-G9683)
2104-10 En Vision Plate Reader, PerkinElmer
RPMI 1640, DMEM, PBS (phosphate buffered solution), FBS (fetal bovine serum), Antibiotic-antimycotic, L-glutamine, DMSO (dimethyl sulfoxide)
3. Assay methods and steps Cell culture
The tumor cell line was cultured in a 37° C., 5% CO2 incubator according to the culture conditions indicated in the culture method. […]
Cells were stained with trypan blue and viable cells were counted. […]
CellTiter-Glo luminescence assay for cell viability detection (day 5)
The following steps were performed according to the instructions of the Promega CellTiter-Glo 3D Luminescence Cell Viability Dectection Kit (Promega #G9683). […]
The solution in the ULA culture plate was then transferred to a black bottom culture plate (#655090) and left at room temperature for 25 minutes to stabilize the luminescence signal.
Luminescence signals were detected with a 2104 EnVision plate reader. […]

[4] = Pharmacokinetic study in vivo in mice; details: mouse, plasma, male C57BL/6J mice; for AUC(0-t): read-out: area under plasma concentration-time curve AUC0-last
Experimental: Male C57BL/6J mice aged 7 to 10 weeks were selected, and administered candidate compound solutions intravenously or orally. Whole blood was collected for a certain period of time. Plasma was prepared. Drug concentration was analyzed by LC-MS/MS method. Pharmacokinetic parameters were calculated using Certara WinNonlin software (Certara Company, USA).

[5] = target: T1, KRAS^G12D; test: Activity of inhibiting KRAS^G12D: binding of KRAS to GTP (TR-FRET, SOS/GTP exchange); type: biochemical; details: Bodipy GDP/SOS/GTP

T1 sequence (P01116-2 other isoform, or with tags, fused parts or gaps G12D): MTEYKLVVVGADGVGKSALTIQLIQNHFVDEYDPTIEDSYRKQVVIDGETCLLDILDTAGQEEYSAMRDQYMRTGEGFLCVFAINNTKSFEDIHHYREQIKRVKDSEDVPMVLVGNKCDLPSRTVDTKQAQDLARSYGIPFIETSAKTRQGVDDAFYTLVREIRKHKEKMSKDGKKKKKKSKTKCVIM

## C#Cc1c(F)ccc2cc(N)cc(-c3c(Cl)cc4c(N5CC6C=CC(C5)N6)nc(OC[C@@]56CCCN5C[C@H](F)C6)nc4c3F)c12 [Compound 001B]
[1]
  IC50: 18.9 nM

## C#Cc1c(F)ccc2cc(N)cc(-c3c(F)cc4c(N5CC6C=CC(C5)N6)nc(OC[C@@]56CCCN5C[C@H](F)C6)nc4c3F)c12 [Compound 002A]
[2]
  IC50: 0.15 nM
[3]
  IC50: 17.7 nM
[4]; intravenous administration, dose 1.74-1.94 mg/kg, read-out: apparent volume of distribution Vdss
  Vd: 56.3 L/kg
[4]; intravenous administration, dose 1.74-1.94 mg/kg
  AUC(0-t): 0.267 µM·h
[4]; intravenous administration, dose 1.74-1.94 mg/kg, read-out: clearance rate CL
  clearance: 189 mL/min/kg
[4]; intravenous administration, dose 1.74-1.94 mg/kg, read-out: half-life T1/2 (converted)
  half-life: 7.12 h
[4]; oral administration, dose 28.2-51.0 mg/kg
  AUC(0-t): 0.637 µM·h
[4]; oral administration, dose 28.2-51.0 mg/kg, read-out: bioavailability F
  bioavailability: 16.1%
[4]; oral administration, dose 28.2-51.0 mg/kg, read-out: peak concentration Cmax
  Cmax: 345 nM
[4]; oral administration, dose 28.2-51.0 mg/kg, read-out: peak time Tmax
  Tmax: 1.13 h
[1]
  IC50: 23.7 nM

## C#Cc1c(F)ccc2cc(N)cc(-c3ccc4c(N5CC6C=CC(C5)N6)nc(OC[C@@]56CCCN5C[C@H](F)C6)nc4c3F)c12 [Compound 003]
[1]
  IC50: 20.4 nM

## C#Cc1c(F)ccc2cc(O)cc(-c3ccc4c(N5CC6C=CC(C5)N6)nc(OC[C@@]56CCCN5C[C@H](F)C6)nc4c3F)c12 [Compound 005]
[1]
  IC50: 12.3 nM

## C#Cc1c(F)ccc2cc(N)cc(-c3cc(OC)c4c(N5CC6C=CC(C5)N6)nc(OC[C@@]56CCCN5C[C@H](F)C6)nc4c3F)c12 [Compound 006]
[1]
  IC50: 37.4 nM

## C#Cc1c(F)ccc2cc(N)cc(-c3c(F)cc4c(N5CC6C=CC(C5)N6)nc(OC[C@]56CCCN5CC(=C)C6)nc4c3F)c12 [Compound 016B]
[3]
  IC50: 14.2 nM

## Oc1cc(-c2c(Cl)cc3c(N4C5CCC4CNC5)nc(OC[C@@]45CCCN4C[C@H](F)C5)nc3c2F)c2ccccc2c1 [Compound 029 hydrochloride]
[5]
  IC50: 38.6 nM
